One assay addresses T1, KRas^G12V (Homo sapiens, UniProt P01116, G12V).
T1 construct: Biotinylated KRas (corresponding to amino acids 1-169, produced at Accelegan Inc.); biotin (biotinylated); purchased Accelegan Inc
In words: KRas binding assay (TR-FRET tracer displacement), KRas G12V. In general terms: TR-FRET usually uses a lanthanide donor and a delayed reading to cut background.

Another assay has as its target T2, KRas^G12R (Homo sapiens, UniProt P01116, G12R).
T2 construct: Biotinylated KRas (corresponding to amino acids 1-169, produced at Accelegan Inc.); biotin (biotinylated); purchased Accelegan Inc
Description: KRas binding assay (TR-FRET tracer displacement), KRas G12R.

Assay [1] relates to KRas-mediated phosphorylation of ERK in MKN1 cells. Description: Inhibition of KRas-mediated phosphorylation of ERK (Cisbio HTRF pERK), MKN1 cells. Conditions: Homo sapiens, MKN-1. It counts as cell-based. The method, boiled down: (§1)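 Phospho-ERK is quantified by HTRF with the Advanced pERK kit. Cells go in at 6,000/well in RPMI plus 10% FBS overnight at 37° C. under 5% CO2, with a 4-hour covered room-temperature incubation ahead of the read.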

The subject of assay [2] is KRas-mediated phosphorylation of ERK in AsPC-1 cells. In words: Inhibition of KRas-mediated phosphorylation of ERK (Cisbio HTRF pERK), AsPC-1 cells. Conditions: Homo sapiens; for IC50: ASPC1, AsPC-1 cells, HTRF pERK. It counts as cell-based. In outline:
(§2)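 Compound treatment lasts 3 hrs on 6,000 seeded cells, testing 10 doses from a 10 uM top concentration in 3-fold decrements at 0.8% final DMSO. Trametinib at 0.2 uM defines the Min signal. Detection is HTRF on cold-lysed cell extracts.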

Assay [3] deals with KRas-mediated phosphorylation of ERK in HCT116 cells. Description: Inhibition of KRas-mediated phosphorylation of ERK (Cisbio HTRF pERK), HCT116 cells. Type of assay: cell-based. Conditions: Homo sapiens; for IC50: HCT-116, HTRF pERK. The method, boiled down: (§3)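 Signal read by HTRF (d2/Cryptate antibody pair, 2 hr room-temperature incubation on lysate). Cells: 6,000 per well, 3 hr compound exposure. Titration: 10 uM highest, 3-fold, 10 points.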

The target in the next assay is T3, KRas^G12D (Homo sapiens, UniProt P01116, G12D).
T3 construct: Biotinylated KRas (corresponding to amino acids 1-169, produced at Accelegan Inc.); biotin (biotinylated); purchased Accelegan Inc
T3 sequence (P01116 1-169 isoform P01116-2 G12D): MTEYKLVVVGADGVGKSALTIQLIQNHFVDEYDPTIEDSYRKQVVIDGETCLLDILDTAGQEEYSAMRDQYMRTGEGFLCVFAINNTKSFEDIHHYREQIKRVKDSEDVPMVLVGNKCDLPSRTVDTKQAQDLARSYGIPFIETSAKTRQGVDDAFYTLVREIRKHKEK
Description: KRas binding assay (TR-FRET tracer displacement), KRas G12D.

For assay [4], the system named is KRas-mediated phosphorylation of ERK in H727 cells. Description: Inhibition of KRas-mediated phosphorylation of ERK (Cisbio HTRF pERK), H727 cells. Conditions: Homo sapiens; for IC50: NCI-H727, H727 cells, HTRF pERK. Type of assay: cell-based. In outline: as §2
The subject of assay [5] is KRas-mediated phosphorylation of ERK in PSN1 cells. In words: Inhibition of KRas-mediated phosphorylation of ERK (Cisbio HTRF pERK), PSN1 cells. Type of assay: cell-based. Conditions: Homo sapiens. The method, boiled down:
as §1

Assay [6] has as its system KRas-mediated phosphorylation of ERK in A549 cells. In words: Inhibition of KRas-mediated phosphorylation of ERK (Cisbio HTRF pERK), A549 cells. Type of assay: cell-based. Conditions: Homo sapiens; for IC50: HTRF pERK. In outline:
as §3

For assay [7], the system named is KRas-mediated phosphorylation of ERK in H460 cells. Description: Inhibition of KRas-mediated phosphorylation of ERK (Cisbio HTRF pERK), H460 cells. It counts as cell-based. Conditions: Homo sapiens; for IC50: NCI-H460, HTRF pERK. The method, boiled down: as §2
The subject of assay [8] is KRas-mediated phosphorylation of ERK in H358 cells. Description: Inhibition of KRas-mediated phosphorylation of ERK (Cisbio HTRF pERK), H358 cells. Type of assay: cell-based. Conditions: Homo sapiens; for IC50: NCI-H358, HTRF pERK. The method, boiled down: as §2

T2 sequence (P01116 1-169 isoform P01116-2 G12R): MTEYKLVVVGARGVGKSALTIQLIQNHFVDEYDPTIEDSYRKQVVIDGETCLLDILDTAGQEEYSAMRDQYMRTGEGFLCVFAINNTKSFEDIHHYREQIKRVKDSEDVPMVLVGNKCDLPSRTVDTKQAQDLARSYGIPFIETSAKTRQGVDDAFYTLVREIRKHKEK
T1 sequence (P01116 1-169 isoform P01116-2 G12V): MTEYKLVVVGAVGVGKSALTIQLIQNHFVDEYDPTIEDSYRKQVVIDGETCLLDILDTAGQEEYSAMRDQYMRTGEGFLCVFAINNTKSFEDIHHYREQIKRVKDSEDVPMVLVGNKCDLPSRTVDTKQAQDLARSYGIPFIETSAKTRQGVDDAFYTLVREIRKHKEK

For the compound `CCc1c(F)ccc2cc(O)cc(-c3ncc4c(N5CC6CCC(C5)C6CC(N)=O)nc(OC[C@@]56CCCN5C[C@H](F)C6)nc4c3F)c12` (stereo partly drawn) [Example 859, 2-((1R,5S,8S)-3-(7-(8-ethyl-7-fluoro-3-hydroxynaphthalen-1-yl)-8-fluoro-2-(((2R,7aS)-2-fluorotetrahydro-1H-pyrrolizin-7a(5H)-yl)methoxy)pyrido[4,3-d]pyrimidin-4-yl)-3-azabicyclo[3.2.1]octan-8-yl)acetamide], the IC50 (in general, the concentration that gives 50% inhibition) at KRas^G12V was 17 nM; at KRas^G12R it was 13 nM; in assay [1] it was 56 nM; in assay [2], above 10000 nM; in assay [3], 1260 nM; at KRas^G12D it was 51 nM. The IC50 in [4] was 5480 nM; in [5], above 10000 nM; in [6], above 10000 nM; in assay [7] it was 892 nM; in assay [8] it was 1140 nM.
For the compound `CCc1c(F)ccc2cc(O)cc(-c3ncc4c(N5CCOC[C@@]6(CCO6)C5)nc(OC[C@@]56CCCN5C[C@H](F)C6)nc4c3F)c12` [Example 836, 5-ethyl-6-fluoro-4-(8-fluoro-2-(((2R,7aS)-2-fluorotetrahydro-1H-pyrrolizin-7a(5H)-yl)methoxy)-4-((R)-1,6-dioxa-9-azaspiro[3.6]decan-9-yl)pyrido[4,3-d]pyrimidin-7-yl)naphthalen-2-ol], the IC50 came out at 6 nM on KRas^G12V; 4 nM on KRas^G12R; 19 nM in [1]; 386 nM in assay [2]; 119 nM in assay [3]; 24 nM on KRas^G12D. Further, the 50% inhibitory concentration (IC50) is 231 nM in assay [4]; 9790 nM in assay [5]; 69 nM in assay [6]; 32 nM in assay [7]; 22 nM in assay [8].
`CCc1c(F)ccc2cc(O)cc(-c3ncc4c(N5C[C@H]6CC[C@@H](C5)[C@@H]6O)nc(OC[C@@]56CCCN5C[C@H](F)C6)nc4c3F)c12` [Example 842, (1R,5S,8R)-3-(7-(8-ethyl-7-fluoro-3-hydroxynaphthalen-1-yl)-8-fluoro-2-(((2R,7aS)-2-fluorotetrahydro-1H-pyrrolizin-7a(5H)-yl)methoxy)pyrido[4,3-d]pyrimidin-4-yl)-3-azabicyclo[3.2.1]octan-8-ol]: the 50% inhibitory concentration (IC50) at KRas^G12V was below 2 nM; on KRas^G12R it was below 2 nM; in [1], 1 nM; in assay [2], 479 nM; in assay [3], 41 nM; on KRas^G12D, 5 nM. In addition, the IC50 in assay [4] is 97 nM; in assay [5], above 10000 nM; in assay [6], 56 nM; in [7], 20 nM; in assay [8], 9 nM.
For `CCc1c(F)ccc2cc(O)cc(-c3ncc4c(N5CC6CCC(CO)(C5)C6(F)F)nc(OC[C@@]56CCCN5C[C@H](F)C6)nc4c3F)c12` (stereo partly drawn) [Example 901, 4-(4-(8,8-difluoro-1-(hydroxymethyl)-3-azabicyclo[3.2.1]octan-3-yl)-8-fluoro-2-(((2R,7aS)-2-fluorotetrahydro-1H-pyrrolizin-7a(5H)-yl)methoxy)pyrido[4,3-d]pyrimidin-7-yl)-5-ethyl-6-fluoronaphthalen-2-ol], the half-inhibitory concentration (IC50) at KRas^G12V was found to be 60 nM; on KRas^G12R, 20 nM; in assay [1], 19 nM; in assay [2] it was 2450 nM; in [3], 1400 nM; at KRas^G12D it was 99 nM. Further, the IC50 was 2420 nM in assay [4]; above 10000 nM in assay [5]; 873 nM in assay [6]; 368 nM in [7]; 623 nM in assay [8].
Regarding `CCc1c(F)ccc2cc3[nH]ncc3c(-c3ncc4c(N5CCC[C@]6(C5)NC(=O)NC6=O)nc(OC[C@@]56CCCN5C[C@H](F)C6)nc4c3F)c12` [Example 915, (5R)-7-(7-(5-ethyl-6-fluoro-1H-benzo[f]indazol-4-yl)-8-fluoro-2-(((2R,7aS)-2-fluorotetrahydro-1H-pyrrolizin-7a(5H)-yl)methoxy)pyrido[4,3-d]pyrimidin-4-yl)-1,3,7-triazaspiro[4.5]decane-2,4-dione], the 50% inhibitory concentration (IC50) on KRas^G12V is below 2 nM; on KRas^G12R it was below 2 nM; in assay [1], 14 nM; in [2], 94 nM; in [3] it was 60 nM; at KRas^G12D, below 2 nM. In addition, the IC50 was 74 nM in assay [4]; 1550 nM in assay [5]; 51 nM in assay [6]; 36 nM in [7]; 9 nM in assay [8].
For `CCc1c(F)ccc2cc(O)cc(-c3ncc4c(N5CC6CCC(CC(=O)N(C)C)(C6)C5)nc(OC[C@@]56CCCN5C[C@H](F)C6)nc4c3F)c12` (stereo partly drawn) [Example 911, 2-(3-(7-(8-ethyl-7-fluoro-3-hydroxynaphthalen-1-yl)-8-fluoro-2-(((2R,7aS)-2-fluorotetrahydro-1H-pyrrolizin-7a(5H)-yl)methoxy)pyrido[4,3-d]pyrimidin-4-yl)-3-azabicyclo[3.2.1]octan-1-yl)-N,N-dimethylacetamide], the concentration for half-maximal inhibition (IC50) on KRas^G12V came out at 3 nM; at KRas^G12R it was 10 nM; in [1], 17 nM; in [2], 526 nM; in assay [3], 231 nM; at KRas^G12D, 11 nM. Besides, the half-inhibitory concentration (IC50) in assay [4] was 527 nM; in [5], above 10000 nM; in assay [6] it was 226 nM; in assay [7] it was 108 nM; in [8], 114 nM.
In the case of `CCc1c(F)ccc2cc(O)cc(-c3ncc4c(N5CC6CCC(C(N)=O)(C6)C5)nc(OC[C@@]56CCCN5C[C@H](F)C6)nc4c3F)c12` (stereo partly drawn) [Example 834, 3-(7-(8-ethyl-7-fluoro-3-hydroxynaphthalen-1-yl)-8-fluoro-2-(((2R,7aS)-2-fluorotetrahydro-1H-pyrrolizin-7a(5H)-yl)methoxy)pyrido[4,3-d]pyrimidin-4-yl)-3-azabicyclo[3.2.1]octane-1-carboxamide], the IC50 worked out at 3 nM at KRas^G12V; 5 nM on KRas^G12R; 87 nM in assay [1]; 3450 nM in [2]; 1200 nM in assay [3]; 8 nM at KRas^G12D. Moreover, the IC50 was 1140 nM in [4]; above 10000 nM in [5]; 2750 nM in assay [6]; 797 nM in [7]; 186 nM in [8].
For the compound `CCc1c(F)ccc2cc(O)cc(-c3ncc4c(N5CCC[C@@](C)(O)C5)nc(OC[C@@]56CCCN5[C@@H](CNS(=O)(=O)N(C)C)CC6)nc4c3F)c12` [Example 788, (R)-1-(7-(8-ethyl-7-fluoro-3-hydroxynaphthalen-1-yl)-8-fluoro-2-(((3R,7aS)-3-(((dimethylsulfamoyl)amino)methyl)tetrahydro-1H-pyrrolizin-7a(5H)-yl)methoxy)pyrido[4,3-d]pyrimidin-4-yl)-3-methylpiperidin-3-ol], the IC50 was below 2 nM at KRas^G12V; 4 nM on KRas^G12R; 13 nM in assay [1]; 73 nM in assay [2]; 2 nM at KRas^G12D; 211 nM in assay [4]. In [5], this compound displayed a half-maximal inhibitory concentration (IC50) of 2840 nM. Moreover, the inhibition – broadly, the share of the control response that was lost under treatment – at 0.1 µM in [2] (ASPC1, 3 h, single point, 100 nM compound, 3 hrs, AsPC-1 cells) stood at 45%; in assay [3] (HCT-116, 3 h, single point, 100 nM compound, 3 hrs), 33%; in assay [4] (NCI-H727, 3 h, single point, 100 nM compound, 3 hrs, H727 cells), 41%; in [6] (A549, 3 h, single point, 100 nM compound, 3 hrs), 38%; in [7] (NCI-H460, 3 h, single point, 100 nM compound, 3 hrs) it was 47%; in [8] (NCI-H358, 3 h, single point, 100 nM compound, 3 hrs) it was 75%.
Consider `CCc1c(F)ccc2cc(O)cc(-c3ncc4c(N5CCC[C@@](C)(O)C5)nc(OCC5(CN(C)C)C(C)C5C)nc4c3F)c12` (stereo partly drawn) [Example 818, (3R)-1-(2-((1-((dimethylamino)methyl)-2,3-dimethylcyclopropyl)methoxy)-7-(8-ethyl-7-fluoro-3-hydroxynaphthalen-1-yl)-8-fluoropyrido[4,3-d]pyrimidin-4-yl)-3-methylpiperidin-3-ol], for which the 50% inhibitory concentration (IC50) came to 3 nM at KRas^G12V; 8 nM at KRas^G12R; 61 nM in [1]; 135 nM in [2]; 345 nM in assay [3]; 3 nM on KRas^G12D. Further, the half-maximal inhibitory concentration (IC50) in [4] is 347 nM; in assay [5] it was above 10000 nM; in assay [6], 212 nM; in assay [7], 167 nM; in [8], 121 nM.

Values taken from patent publication US20260015350A1, “AZAQUINAZOLINE PAN-KRAS INHIBITORS” (Mirati Therapeutics, Inc., priority 2022, published 2026).
